These results are taken from patent publication US10093675B2, “6,8-disubstituted-9-(heterocyclyl)purines, compositions containing these derivatives and their use in cosmetic and medicinal applications” (USTAV EXPERIMENTALNI BOTANIKY AV CR, V.V.I., priority 2014, dated 2018).

Data set [1] concerns normal diploid fibroblasts BJ. As to the kind of experiment: In vitro cytotoxic activity (Calcein AM), BJ. In kind it is cell-based, human. To be noted: 72 hours, read-out: Cell line tested/IC50 (μmol/L) BJ. Summed up: (§1)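 Calcein fluorescence, read 1 hour after adding Calcein AM at 1 μg/ml final, measured viability following 72 hours of compound treatment at 37° C. Compounds were tested as six 3-fold dilutions from usually 100 μM in triplicate. GI50 was the concentration reducing conversion by 50%.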

Data set [2] concerns breast carcinoma cell line MCF-7. As to the kind of experiment: In vitro cytotoxic activity (Calcein AM), MCF-7. Type of data set: cell-based, human. To be noted: read-out: Cell line tested/IC50 (μmol/L) MCF7. Put shortly: as §1
The test system of data set [3] is erytroid leukemia cell line K-562. As to the kind of experiment: In vitro cytotoxic activity (Calcein AM), K-562. To be noted: read-out: Cell line tested/IC50 (μmol/L) K-562. In kind it is cell-based, human. Put shortly:
as §1

In data set [4] the test system is T-lymphoblastic leukemia cell line CEM. As to the kind of experiment: In vitro cytotoxic activity (Calcein AM), CEM. In kind it is cell-based, human. To be noted: 72 hours, read-out: Cell line tested/IC50 (μmol/L) CEM. Summed up:
as §1

Data set [5] deals with Human diploid fibroblast BJ. As to the kind of experiment: In vitro cytotoxic activity (MTT). In kind it is cell-based. Conditions: 72 hours incubation; concentration causing 20% decrease in mitochondrial dehydrogenase activity.
The subject of data set [6] is cytokinin-dependent tobacco callus Nicotiana tabacum L. cv. Wisconsin 38. As to the kind of experiment: Plant cell division: growth of cytokinin-dependent tobacco callus. Type of data set: cell-based. Conditions: for Activity (%); (s.d.): relative activity at concentration with highest activity, 10^−6 M kinetin set at 100%; for Concentration with highest activity (mol/l): tobacco callus fresh weight increase after four weeks, tested 10^−8 M to 10^−4 M.

Data set [7] concerns osteosarcoma cell line HOS. As to the kind of experiment: In vitro cytotoxic activity (Calcein AM), HOS. In kind it is cell-based, human. To be noted: 72 hours, read-out: Cell line tested/IC50 (μmol/L) HOS. Put shortly: as §1
The subject of data set [8] is Salmonella typhimurium histidien auxotrophs TA98 and TA100. As to the kind of experiment: Ames test. Type of data set: cell-based. To be noted: 2.5 to 5000 μg/plate; presence and absence of Aroclor-induced rat liver S9. Summed up:
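Strains TA98 and TA100 exposed to compounds in DMSO at 2.5, 5.0, 15, 50, 500, 1500 and 5000 μg/plate following standard Ames/Maron protocols.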
In general terms: The Ames test uses bacterial strains that need an amino acid and regain growth without it when mutated back.

In data set [9] the test system is melanoma cell line G-361. As to the kind of experiment: In vitro cytotoxic activity (Calcein AM), G-361. Type of data set: cell-based, human. Conditions: read-out: Cell line tested/IC50 (μmol/L) G-361. Summed up:
as §1

Each structure is given as a SMILES string. pIC50: −log10 of the molar value. Like-named read-outs stand apart in the source and are kept apart here.

As for `Fc1ccc(CNc2ncnc3c2nc(Br)n3C2CCCCO2)cc1F` (stereo not shown) [Compound 27], the pIC50 in data set [1], in data set [2] (72 hours), in [3] (72 hours), in [4], in data set [7] and in data set [9] (72 hours) was less than 4.30 each time. The “GI20” value in [5] is greater than 100 µM. For the same compound, in data set [6], the “Activity (%); (s.d.)” value is 115 (±4) %. Moreover, the “Concentration with highest activity (mol/l)” value (“Concentration” below) in data set [6] was 10^−6-10^−5 mol/l. In addition, the mutagenic response result in data set [8] is reported as “no positive mutagenic responses”.
With `CSc1nc2c(NCc3ccco3)ncnc2n1C1CCCCO1` (stereo not shown) [Compound 145, 6-Furfurylamino-8-methylsulfanyl-9-(tetrahydropyran-2-yl)-9H-purine], the pIC50 in data set [1] (Homo sapiens, Fibroblast) is less than 4.30; in data set [2] (Homo sapiens, MCF7, 72 hours), less than 4.30; in data set [3] (Homo sapiens, K562, 72 hours), less than 4.30; in data set [4] (Homo sapiens) it was less than 4.30; in [7] (Homo sapiens), less than 4.30; in data set [9] (Homo sapiens, G-361, 72 hours), less than 4.30. For the same compound, the “GI20” value in [5] was greater than 100 µM. In [6], the “Activity (%); (s.d.)” value is 103 (±5) %. Moreover, the mutagenic response result in data set [8] is on record as “no positive mutagenic responses”.
Regarding `C/C(=C\CNc1ncnc2c1nc(Br)n2C1CCCCO1)CO` (stereo not shown) [Compound 24, (E)-8-Bromo-6-(4-hydroxy-3-methylbut-2-en-1-ylamino)-9-(tetrahydropyran-2-yl)-9H-purine], the pIC50 in data set [1] (Homo sapiens, Fibroblast) is less than 4.30; in [2] (Homo sapiens, MCF7, 72 hours) it was less than 4.30; in [3] (Homo sapiens, K562, 72 hours) it was less than 4.30; in data set [4] (Homo sapiens), less than 4.30; in [7] (Homo sapiens), less than 4.30; in data set [9] (Homo sapiens, G-361, 72 hours), less than 4.30. Further, the “GI20” value in [5] was greater than 100 µM. Moreover, the “Activity (%); (s.d.)” value in data set [6] is reported as 128 (±8) %. The mutagenic response entry in [8] is on record as “no positive mutagenic responses”.
On to `Fc1cccc(CNc2ncnc3c2nc(Br)n3C2CCCCO2)c1` (stereo not shown) [Compound 26], for which the pIC50 in data set [1], in data set [2] (72 hours), in data set [3] (72 hours), in data set [4], in data set [7] and in data set [9] (72 hours) was less than 4.30 throughout. Besides, the “GI20” value in data set [5] was greater than 100 µM. Besides, the “Activity (%); (s.d.)” value in data set [6] was 117 (±4) %. The “Concentration” value in data set [6] is on record as 10^−6-10^−5 mol/l. Further, the mutagenic response result in data set [8] was “no positive mutagenic responses”.
As for `COc1cccc(CNc2ncnc3c2nc(Cl)n3C2CCCO2)c1` (stereo not shown) [Compound 69], the pIC50 in data set [1], in data set [2] (72 hours), in data set [3] (72 hours), in [4], in data set [7] and in data set [9] (72 hours) was less than 4.30 each time. For the same compound, the “GI20” value in data set [5] is greater than 100 µM. The “Activity (%); (s.d.)” value in data set [6] was 111 (±5) %. Moreover, the “Concentration” value in data set [6] was 10^−6-10^−4 mol/l. Further, in [8], the mutagenic response entry is reported as “no positive mutagenic responses”.
As for `COc1nc2c(NCc3ccco3)ncnc2n1C1CCCCO1` (stereo not shown) [Compound 124, 6-Furfurylamino-8-methoxy-9-(tetrahydropyran-2-yl)-9H-purine], the pIC50 in [1] (Homo sapiens, Fibroblast) is less than 4.30; in data set [2] (Homo sapiens, MCF7, 72 hours), less than 4.30; in data set [3] (Homo sapiens, K562, 72 hours), less than 4.30; in data set [4] (Homo sapiens), less than 4.30; in data set [7] (Homo sapiens) it was less than 4.30; in data set [9] (Homo sapiens, G-361, 72 hours) it was less than 4.30. In [5], the “GI20” value is greater than 100 µM. In data set [6], the “Activity (%); (s.d.)” value was 105 (±2) %. Also, the mutagenic response result in data set [8] is “no positive mutagenic responses”.
In the case of `C/C(=C\CNc1ncnc2c1nc(Cl)n2C1CCCO1)CO` (stereo not shown) [Compound 64], the pIC50 in [1], in [2] (72 hours), in [3] (72 hours), in [4], in data set [7] and in data set [9] (72 hours) was less than 4.30 each time. Also, the “GI20” value in [5] was greater than 100 µM. In addition, the “Activity (%); (s.d.)” value in data set [6] is given as 130 (±10) %. In addition, the “Concentration” value in data set [6] was 10^−6-10^−4 mol/l. In addition, in data set [8], the mutagenic response entry is listed as “no positive mutagenic responses”.
